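Dose response: 5 concentrations. Exposure: 48 h. Format: 96-well plates. Endpoint: linear interpolation; highest concentration if not reached. Abbreviation: GI50, concentration required for 50% inhibition of growth.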 Active and inactive are the calls of the source. Rule as the data show it: active = GI50 up to about 1.1 µM and inactive = higher.
Experiments:
Assay in all cases: NCI-60 cell line screen, 48 h
SF-539 = tested on: SF-539
M14 = tested on: M14
TK-10 = tested on: TK-10
Malme-3M = tested on: Malme-3M
CCRF-CEM = tested on: CCRF-CEM
786-0 = tested on: 786-0
COLO 205 = tested on: COLO 205
HOP-92 = tested on: HOP-92
NCI-H23 = tested on: NCI-H23
SW-620 = tested on: SW-620
MOLT-4 = tested on: MOLT-4
IGROV-1 = tested on: IGROV-1
OVCAR-5 = tested on: OVCAR-5
SK-OV-3 = tested on: SK-OV-3
Hs-578T = tested on: Hs-578T
SF-268 = tested on: SF-268
UACC-257 = tested on: UACC-257
NCI-H522 = tested on: NCI-H522
K562 = tested on: K562
A549 = tested on: A549
DU-145 = tested on: DU-145
MDA-MB-435 = tested on: MDA-MB-435
SN12C = tested on: SN12C
NCI/ADR-RES = tested on: NCI/ADR-RES
UACC-62 = tested on: UACC-62
OVCAR-3 = tested on: OVCAR-3
RPMI-8226 = tested on: RPMI-8226
SNB-19 = tested on: SNB-19
HCT-116 = tested on: HCT-116
HOP-62 = tested on: HOP-62
BT-549 = tested on: BT-549
KM12 = tested on: KM12
SF-295 = tested on: SF-295
ACHN = tested on: ACHN
SK-MEL-2 = tested on: SK-MEL-2
EKVX = tested on: EKVX
T47D = tested on: T47D
U-251 = tested on: U-251
MDA-N = tested on: MDA-N
SK-MEL-28 = tested on: SK-MEL-28
MDA-MB-231 = tested on: MDA-MB-231
MCF7 = tested on: MCF7
NCI-H460 = tested on: NCI-H460
SNB-75 = tested on: SNB-75
LOX IMVI = tested on: LOX IMVI
CAKI-1 = tested on: CAKI-1
HCC 2998 = tested on: HCC 2998
HL-60 = tested on: HL-60
OVCAR-8 = tested on: OVCAR-8
PC-3 = tested on: PC-3
HCT-15 = tested on: HCT-15
RXF 393 = tested on: RXF 393
NCI-H226 = tested on: NCI-H226
HT-29 = tested on: HT-29
A498 = tested on: A498
OVCAR-4 = tested on: OVCAR-4
SK-MEL-5 = tested on: SK-MEL-5
SR = tested on: SR
UO-31 = tested on: UO-31

CC1=NC(=N)N=C(C)C1/N=N/c1ccc2[nH]c(C)nc2c1 (stereo unspecified)
GI50 (SF-539): > 100 µM (inactive) | GI50 (M14): > 100 µM (inactive) | GI50 (TK-10): > 100 µM (inactive) | GI50 (Malme-3M): > 100 µM (inactive) | GI50 (CCRF-CEM): > 100 µM (inactive) | GI50 (786-0): > 100 µM (inactive) | GI50 (COLO 205): > 100 µM (inactive) | GI50 (HOP-92): > 100 µM (inactive) | GI50 (NCI-H23): > 100 µM (inactive) | GI50 (SW-620): > 100 µM (inactive) | GI50 (MOLT-4): > 100 µM (inactive) | GI50 (IGROV-1): > 100 µM (inactive) | GI50 (OVCAR-5): > 100 µM (inactive) | GI50 (SK-OV-3): > 100 µM (inactive) | GI50 (Hs-578T): > 100 µM (inactive) | GI50 (SF-268): > 100 µM (inactive) | GI50 (UACC-257): > 100 µM (inactive) | GI50 (NCI-H522): > 100 µM (inactive) | GI50 (K562): > 100 µM (inactive) | GI50 (A549): > 100 µM (inactive) | GI50 (DU-145): > 100 µM (inactive) | GI50 (MDA-MB-435): > 100 µM (inactive) | GI50 (SN12C): > 100 µM (inactive) | GI50 (NCI/ADR-RES): > 100 µM (inactive) | GI50 (UACC-62): > 100 µM (inactive) | GI50 (OVCAR-3): > 100 µM (inactive) | GI50 (RPMI-8226): > 100 µM (inactive) | GI50 (SNB-19): > 100 µM (inactive) | GI50 (HCT-116): > 100 µM (inactive) | GI50 (HOP-62): > 100 µM (inactive) | GI50 (BT-549): > 100 µM (inactive) | GI50 (KM12): > 100 µM (inactive) | GI50 (SF-295): > 100 µM (inactive) | GI50 (ACHN): > 100 µM (inactive) | GI50 (SK-MEL-2): > 100 µM (inactive) | GI50 (EKVX): > 100 µM (inactive) | GI50 (T47D): > 100 µM (inactive) | GI50 (U-251): > 100 µM (inactive) | GI50 (MDA-N): > 100 µM (inactive) | GI50 (SK-MEL-28): > 100 µM (inactive) | GI50 (MDA-MB-231): > 100 µM (inactive) | GI50 (MCF7): > 100 µM (inactive) | GI50 (NCI-H460): > 100 µM (inactive) | GI50 (SNB-75): > 100 µM (inactive) | GI50 (LOX IMVI): > 100 µM (inactive) | GI50 (CAKI-1): > 100 µM (inactive) | GI50 (HCC 2998): > 100 µM (inactive) | GI50 (HL-60): > 100 µM (inactive) | GI50 (OVCAR-8): > 100 µM (inactive) | GI50 (PC-3): > 100 µM (inactive) | GI50 (HCT-15): > 100 µM | GI50 (RXF 393): > 100 µM (inactive) | GI50 (NCI-H226): > 100 µM (inactive) | GI50 (HT-29): > 100 µM (inactive) | GI50 (A498): > 100 µM (inactive) | GI50 (OVCAR-4): > 100 µM (inactive)

Cc1cc(N(CCC#N)CCC#N)ccc1C(/N=N/c1ccc(Cl)cc1)=N\NC(=O)c1ccccc1
GI50 (SF-539): 7.62 µM (inactive) | GI50 (M14): 80.5 µM (inactive) | GI50 (TK-10): 60.5 µM (inactive) | GI50 (Malme-3M): 20.4 µM (inactive) | GI50 (CCRF-CEM): 31.5 µM (inactive) | GI50 (786-0): 34.6 µM (inactive) | GI50 (COLO 205): 27.6 µM (inactive) | GI50 (NCI-H23): 33.7 µM (inactive) | GI50 (MOLT-4): 40 µM (inactive) | GI50 (IGROV-1): 24.5 µM (inactive) | GI50 (OVCAR-5): > 100 µM (inactive) | GI50 (SK-OV-3): 42.6 µM (inactive) | GI50 (Hs-578T): 17 µM (inactive) | GI50 (SF-268): 41.9 µM (inactive) | GI50 (UACC-257): 58.7 µM (inactive) | GI50 (NCI-H522): 18.4 µM (inactive) | GI50 (K562): 14.9 µM (inactive) | GI50 (A549): 42.7 µM (inactive) | GI50 (DU-145): 44.7 µM (inactive) | GI50 (MDA-MB-435): 5.62 µM (inactive) | GI50 (SN12C): 44.2 µM (inactive) | GI50 (NCI/ADR-RES): 27.4 µM (inactive) | GI50 (SK-MEL-5): 22 µM (inactive) | GI50 (UACC-62): 29.8 µM (inactive) | GI50 (OVCAR-3): 42.1 µM (inactive) | GI50 (RPMI-8226): 54.2 µM (inactive) | GI50 (SNB-19): 41.9 µM (inactive) | GI50 (HCT-116): 26.5 µM (inactive) | GI50 (HOP-62): 59.6 µM (inactive) | GI50 (BT-549): 25.6 µM (inactive) | GI50 (KM12): 20.2 µM (inactive) | GI50 (SF-295): 9.23 µM (inactive) | GI50 (ACHN): 82 µM (inactive) | GI50 (SK-MEL-2): 84.1 µM (inactive) | GI50 (EKVX): 37.9 µM (inactive) | GI50 (T47D): 24.5 µM (inactive) | GI50 (U-251): 40.7 µM (inactive) | GI50 (MDA-N): 5.21 µM (inactive) | GI50 (MDA-MB-231): 34.6 µM (inactive) | GI50 (MCF7): 13.6 µM (inactive) | GI50 (NCI-H460): 39.7 µM (inactive) | GI50 (SNB-75): 49.5 µM (inactive) | GI50 (CAKI-1): 98.9 µM (inactive) | GI50 (HCC 2998): 31 µM (inactive) | GI50 (HL-60): 25.5 µM (inactive) | GI50 (OVCAR-8): 42.1 µM (inactive) | GI50 (PC-3): 32.5 µM (inactive) | GI50 (HCT-15): 16 µM | GI50 (SR): 9.59 µM (inactive) | GI50 (RXF 393): 49.2 µM (inactive) | GI50 (NCI-H226): 31.3 µM (inactive) | GI50 (HT-29): 20.5 µM (inactive) | GI50 (A498): 13.6 µM (inactive) | GI50 (UO-31): 67.6 µM (inactive) | GI50 (OVCAR-4): 47.8 µM (inactive)

Reference: ChEMBL document CHEMBL1201862, “PubChem BioAssay data set” (2004)
